Source: PMC6586287, “Blocking transmembrane219 protein signaling inhibits autophagy and restores normal cell death” (PLoS ONE, 2019)
Entries after “also recorded” stand apart in the source; their conditions may differ.

Tests used:
[1] = test system: LC3 processing in Vero cells; test: LC3-II punctate staining, LC3-mRFP transfected Vero cells; format: cell-based
Method: Immunostaining was performed as described previously (44). Briefly, cells were grown on a coverslip overnight at 5×10^5 cells/ml. 1 μl of Hoechst stain (10 μg/μl) was added to the cells for 10 min at 37°C. For tracking TM219 short cytoplasmic peptide assay, we pretreated the cells with the peptides at concentration of 0, 25, or 250 nM, then added 1 μM IGFBP3 for an hour in DMEM serum free medium. Cells were fixed with 4% paraformaldehyde and permeabilized with 1% triton x100. Cells were then blocked overnight with 10% fetal bovine serum (FBS) in PBS. Finally, cells were stained with streptavidin conjugated to Alex555 (Thermofisher Scientific) for 30 minutes in the same blocking buffer. For immunostaining, cells were stained with the primary antibody according to the manufacturer’s recommendation in the same blocking buffer. The cells were washed 10 times with PBS. Cells were blocked for 1 h with 10% FBS and then stained with secondary antibody conjugated to fluorescence dye (Thermofisher Scientific). As controls, we used secondary antibodies alone. Cells were washed 10 times with PBS and mounted with fluoromount G (Microscopic Science) before examination.
We stained the intact cellular mitochondria using TMRM dye according to the provider recommendations (Thermofisher Scientific). To evaluate the cell membrane permeability in 3D culture, we used membrane impermeable dye propodeum iodide (PI), and the membrane permeable dye (Hoechst dye) to stain the cell nuclei according to the manufacturer recommendations (Thermofisher Scientific). For autophagy efflux assay, we used chloroquine (Sigma-Alderish) (CQ) at final concentration of 200 μM as described previously. Collected images were analyzed with ImageJ software.

[2] = test system: MCF7 cells; test: pHLIP-Cy3 insertion into cell membrane, fluorescence microscopy, MCF7 cells; format: cell-based, human; settings: pH 7.4 or pH 5.5, 5 min
Method: Fig 6 TM219 short cytoplasmic protein tail peptide disrupts the interaction between calmodulin and TM219 protein. […] As the concentration of the free peptide increased, the changes in FP signal decreased. […] B- MCF7 cells treated with pHLIP-cy3 peptide at pH 7.4 or pH 5.5 for 5 minutes. Cells were fixed and examined with fluorescence microscopy. […] Nuclei were stained with Hoechst dye (blue). C-MCF7 cells pretreated with either SCTT-pHLIP or pHLIP peptide alone were treated with 1μM IGFBP3 for 1hour in DMEM serum free medium. Cell lysates were subjected to immunoblot using anti-human phosphor-beclin1 antibody. […] TEXT PRINTED IN THE PICTURE: (A) unlabeled peptide: ki 0.02342 ± 0.001492 DOUBTS OF THE COPYIST ABOUT THIS PICTURE: Panel A, ki: no unit is printed with the value. The substance label 'unlabeled peptide' is taken from the printed x-axis title because the fit box names no substance. / Panel A: 'c 0.1 ± 0' in the fit box was left out as a fit parameter whose meaning is unclear.

[3] = test system: MDA-MB231 cells; test: pHLIP-Cy3 insertion, fluorescence microscopy, MDA-MB231 cells in 2D and 3D culture; format: cell-based, human; settings: 2D (3 days) and 3D (0.5% low melting agarose, 5 days) culture; 6 h at 37°C in DMEM buffered with PBS
Method: A- MDA-MB231 cells were grown in a complete DMEM medium for 3 days or in 0.5% low melting agarose in complete medium for 5 days were treated with phLIP-Cy3 peptide in DMEM buffered with PBS for 6 hour at 37°C. Growth media were replaced with completed DMEM medium buffered with carbonate. Cells were imaged for insertion of the peptide. […] Nuclei of the cells were stained with Hoechst stain (blue) B-Cells pretreated with pHLIP-TM219 peptide or pHLIP peptide alone for 5 days in 0.5% low melting agarose in DMEM complete media supplemented with 1 μM IGFBP3. The peptides were mixed with DMEM buffered with PBS and added to the spheroids grown in low melting agarose. After 6 hours, the media were replaced with completed DMEM media buffered with carbonate pH 7.2. Cells were incubated for additional 9 days at 37°C in a CO2 incubator. […] Living cells were assessed by Hoechst dye stain (Blue).

[4] = test system: TM219-calmodulin complex in THP1 cells; test: co-immunoprecipitation of TM219 complex, anti-calmodulin immunoblot, THP1 cells; format: cell-based, human; settings: 1 μM IGFBP3, 1 h, serum free
Method: For immunoprecipitation of TM219 complex, we treated 6X10^6 THP1 cells grown in Roswell park memorial institute 1640 medium (PRIM) without serum with 1 μM IGFBP3 for 1 hour. Cells were lysed with immunoprecipitation buffer (1% NP-40, 150 mM NaCl, and 50 mM Tris pH 8.4 in the presence of 2 X protease inhibitors (Roche)). Crosslinking of mouse anti-TM219 antibodies to protein A-Sepharose was performed as previously described. Briefly, 1 mg of the antibody was incubated with 1 ml protein A-Sepharose beads (Thermofisher scientific), with continuous mixing at 4°C for 2 h. The beads were then centrifuged and washed five times with PBS and once with 200 mM sodium borate, pH 9. Equal volumes of 40 mM dimethylsuberimidate (Thermofisher scientific) in 200 mM sodium borate were mixed with the beads, and the suspension was incubated, with continuous mixing, at room temperature for 30 min. The reaction was terminated by addition of equal volumes of 400 mM ethanolamine, and the sample was incubated for an additional 30 min. The beads were packed into a 1-cm-diameter column (Bio-RAD) and washed three times with 2 bed volumes of PBS and once with 4 bed volumes of 100 mM glycine-HCl at pH 2.4 to remove non-cross-linked antibodies. Finally, the cross-linked antibody beads were washed with PBS until the pH reached 7 and stored at 4°C in PBS containing 0.02% sodium azide. […]

[5] = test system: Vero cells; test: DIC microscopy of internal vacuoles, Vero cells; format: cell-based; settings: wild type versus TM219 knockout Vero cells; 1 μM IGFBP3, 1 h, serum free
[6] = fluorescence anisotropy control binding to empty nanodisc
Method: Reconstituted TM219 into 13 nm nanodisc and labeling of our purified calmodulin or IGFBP3 (R&D systems) with BODIPY-TRM-X-succinimidyl ester dye were described previously. […] Serial dilution of the TM219 short cytoplasmic peptide (1pM-10mM) was used. Fluorescence anisotropy assays were done in triplicates and data represent an average of three independent experiments. Each sample was run in triplicates and an average of 60 readings was used for calculation. Binding constants (KDs) or inhibition constant (Ki) were determined with Origin 7 (OriginLab) by fitting the data as described previously.

[7] = test system: TM219 complex (calmodulin, CaMKII) in MCF7 cells; test: immunopurification of TM219 complex, anti-CaMKII / anti-calmodulin immunoblot, MCF7 cells; format: cell-based, human; settings: 1 μM IGFBP3, versus untreated and normal mouse antibody beads
[8] = test system: cytosolic calcium in MCF7 cells; settings: independent on IGF or heparin; ref [55]; cited from earlier work
Source text: After that we compared the effects of IGFBP3 on elevation of intracellular calcium in these cells. […] However, no sign ...

[9] = test system: cytosolic calcium in MCF7 cells; test: cytosolic calcium, colorimetric kit, MCF7 cells; format: cell-based, human; settings: 1 μM IGFBP3, 5 min, serum free
Method: We used a colorimetric kit to measure the increase in the cytosolic calcium in MCF7 cells according to the provider recommendations (Abcam). MCF7 cells were grown in completed DMEM medium at density of 5x10^5 cells/ml in 6 well plates. We compared the effects of 1μM IGFBP3 on the wild type, TM219 knockout and untreated MCF7 cells after 5 minutes in serum free medium. As a positive control we used […] ionomycin (Thermofishter Scientific). As a negative control we pretreated MCF7 cells with […] BAPTA for 30 minutes (Thermofisher Scientific). Experiments were run in triplicate.

[10] = test system: phospho-Beclin1 in MCF7 cells; test: Beclin1 phosphorylation / autophagy immunoblot, MCF7 cells; format: cell-based, human; settings: 1 μM IGFBP3, 1 h, serum free; wild type versus TM219 knockout; anti-phospho-beclin1, anti-LC3
Method: For phosphorylation assay of Beclin1 protein, we treated 6x10^6 MCF7 cells grown in DMEM serum free medium with 1 μM IGFBP3. Lysates were prepared in RIPA buffer in presence of 2X protease and phosphatase inhibitors (Thermofisher Scientific). Lysates were clarified by centrifugation at 10,000 rpm for 30 minutes at 4°C. Finally, the blotted membranes were probed with anti-TM219, LC3, calmodulin, phospho-beclin1, or β-actin. To quantify the ratio between LC3-II and LC3-I, we used an image densitometry method using ImageJ software.

For `CCN(CC)CCCC(C)Nc1ccnc2cc(Cl)ccc12` (centres unmarked) [chloroquine, reference compound], the “LC3-II punctate accumulation with chloroquine” value ([1]; 200 μM chloroquine plus 1 μM IGFBP3) was “this punctate stain was accumulated in the cytoplasm” and the “LC3-II punctate accumulation with chloroquine” value ([1]; 200 μM chloroquine plus 1 μM IGFBP3, listed as CQ) was “accumulates LCII positive vesicles in the cytoplasm of Vero cells”.
With “AEQNPIYWARYADWLFTTPLLLLDLALLVDADEGTC-s-s-C(cy3) [pHLIP-cy3]” the “insertion into plasma membrane of MCF7 cells” value [2] was “Staining of the cells with red dye indicates insertion of pHLIP-cy3 into the cell membrane of MCF7 cells” and the “insertion into plasma membrane of MDA-MB231 cells” value [3] was “insertion of pHLIP-cy3 peptide into the plasma membrane of MAD-MB231 in both two dimension and three dimension cell cultures”.
With “Insulin-like growth factor binding protein 3 [IGFBP3]” the “TM219-calmodulin complex formation (co-immunoprecipitation)” value [4] was “immunoprecipitation with anti-TM219 consistently brought down calmodulin”, the “LC3 processing (LC3-II punctate staining)” value ([1]; Vero cells with LC3-mRFP, 1 μM IGFBP3, 1 h, serum free, mean +/- SEM plotted) was “significant increase in processing of LC3; also recorded: significant increase in number of LCII punctate stain” and the internal vacuoles [5] was “TM219 wild type Vero cells demonstrated larger internal vacuoles after treatment with IGFBP3 compared to TM219 knockout Vero cells; also recorded: wild type Vero cells showed larger internal vacuoles”. The “binding of labelled IGFBP3 to empty nanodisc” value ([6]; empty nanodisc 0-2000 nM, fluorescence anisotropy) was “No specific binding was detected”, the “association of calmodulin and CaMKII with TM219 complex” value [7] was “TM219 protein recruits calmodulin and calmodulin dependent kinase II after treatment with IGFBP3; also recorded: Purified proteins from cells treated with IGFBP3 reacted specifically with anti-CaMKII antibody” and the “intracellular calcium release in MCF7 cells (previous studies)” value [8] was “activates intracellular rapid release of intracellular calcium in MCF7 cells”. The “cytosolic calcium, TM219 knockout versus wild type” value [9] was “no significant difference”, the cytosolic calcium ([9]; % of ionomycin reading, BAPTA reading subtracted) was “triggered elevation of the cytosolic calcium in MCF7 independent of TM219 receptor; also recorded: relatively higher signal of calcium relative to untreated MCF7 cells” and the “autophagy activation in MCF7 cells” value [10] was “activates autophagy in MCF7 cells”.
In the case of calmodulin, the “binding of calmodulin to empty nanodisc” value ([6]; empty nanodisc 0-100 μM, 1 mM calcium chloride, 1 μM IGFBP3) is reported as “No specific binding was detected; also recorded: No specific binding was observed”.
